From US20220340764A1, “HYDROPHOBIC AND OLEOPHOBIC SURFACES AND USES THEREOF” (Technion Research & Development Foundation Limited, priority 2012, published 2022)

Legend:
[1] = Static contact angle (wettability) of wax-coated surfaces, Attension Theta tensiometer; format: physicochemical; set-up: C.A. Cyclohexane / C.A. hexadecane / C.A. Water / C.A. Glycerol / C.A. Ethylene Glycol / C.A. Benzyl Chloride / C.A. Clorobenzene: unit not given here; details: for C.A. Benzyl Chloride: liquid Benzyl Chloride; for C.A. Clorobenzene: liquid Clorobenzene; for C.A. Cyclohexane: liquid Cyclohexane; for C.A. Ethylene Glycol: liquid Ethylene Glycol; for C.A. Glycerol: liquid Glycerol; for C.A. Water: liquid Water; for C.A. hexadecane: liquid hexadecane
Excerpt: Typically, but not exclusively, in order to measure the static contact angle, a drop of liquid is formed on the tip of a hypodermic needle attached to a screw syringe. The syringe is fastened to a stand which reduces any irregularities that are produced by manual drop deposition. The substrate is then raised until it touches the drop using the Y control of the stage. The drop is the then brought into the field of view and onto the focal point of the microscope by x-y translation of the stage and image is captured. The static contact angle is calculated by methods known in the art. An exemplary methodology and system for measuring a static contact angle in described in Example s in the Examples section that follows.
The wettability of the surfaces was characterized using water contact angle (C.A.) measurements recorded with an Attension Theta tensiometer. The water wettability measurements were performed with a constant high-purity water drop volume of 7 μL.
Oil contact angles were determined for the following liquids: Glycerol, ethylene glycol, olive oil, benzyl chloride, clorobenzene, cyclohexane and hexadecane, using an Attension Theta tensiometer with approximately 8 μL liquid drops.
Time-dependent contact angle measurements were performed during a period of two weeks.
(§1) Contact angles and RMS roughness were measured as described in Example 2 hereinabove.

P. aeruginosa biofilm = assay: Biofilm formation on wax-coated glass substrates, LIVE/DEAD staining, CLSM; format: cell-based, Pseudomonas aeruginosa PA14; details: glass substrate with thermally evaporated wax; FIGS. 8A-E
Procedure: Pseudomonas aeruginosa PA14 was obtained from Shlomo Sela's lab strain collection (Agricultural Research Organization, Israel).
(§2) For biofilm generation, bacteria were grown to stationary phase in LB (Lysogeny broth) medium at 37° C. in shaking culture. The generated cultures were seeded (by dilution 1:100) into sterile polystyrene multidishes containing different substrates and inoculated into fresh media (37° C., 5 95% air/5% CO2 (v/v) statically without agitation.
(§3) To visualize the constructed biofilms, the substrates were removed from the wells, washed with PBS buffer and stained with FilmTracer™ LIVE/DEAD Biofilm Viability Kit (Molecular Probes, OR) according to the manufacturer's protocol. The stained samples were observed using an Olympus IX81 confocal laser scanning microscope (CLSM, Japan). Live cells were stained green, while dead cells were stained red. Fluorescence emission of the stained samples was measured using an Olympus IX81 CLSM equipped with 488-nm argon-ion and 543-nm helium-neon lasers.
(§4) Two different biofilm forming pathogenic bacteria, B. cereus (Gram positive) and P. aeruginosa (Gram negative), which are often encountered in clinical and industrial settings, were tested for their ability to form biofilm on glass substrates having thermally evaporated thereon the following wax materials: C24F50, C36H74, C40H82 and C44H90.

[2] = RMS roughness of wax-coated surfaces by confocal microscopy; format: physicochemical; details: for Roughness (RMS): spray coated on Si wafer, 5 seconds×4 cycles, wax solution; for RMS roughness growth: thermally-evaporated on silicon substrate
Procedure: RMS roughness (Rq) is typically calculated according to the following formula: […]
Confocal microscopy (Leica DCM3D) was used for roughness measurements. Time-dependent measurements were performed on counterpart samples having non-fluorinated wax coatings that were used for XRD time-dependent measurements. In situ time-resolved confocal microscopy was used for observation of the change in surface roughness over a constant 100 μm×100 μm area for duration of 160 hours. A topographical image was collected every hour. These experiments encompassed the same duration and time intervals as the time-dependent XRD measurements hereinabove.
Similar time-dependent measurements were performed for samples coated with fluorinated wax, maintained at a temperature of 90° C., during 60 hours. These experiments were supported by time-dependent XRD measurements performed at 90° C. during 60 hours, with 1 hour time intervals.
as §1

B. cereus 407 biofilms = assay: Biofilm formation on wax-coated glass substrates, LIVE/DEAD staining, CLSM; format: cell-based, Bacillus cereus; details: glass substrate with thermally evaporated wax, in comparison to control glass surface; FIGS. 7A-7E
Procedure: Bacillus cereus 407 and ATCC 10987 stains were obtained from Michel Gohar's lab collection (INRA, France).
as §2, §3, §4

[3] = thermally-evaporated wax on Silicon substrate
[4] = spray coated on Si wafer, 5 seconds×4 cycles, wax solution
[5] = thermally evaporated on silicon wafer, maintained at 90° C., 18 hr
[6] = thermally evaporated on silicon wafer, maintained at 90° C., 20 hr
[7] = thermally evaporated on silicon wafer, maintained at 90° C., 22 hr
[8] = thermally evaporated on silicon wafer, maintained at 90° C., 30 hr
[9] = thermally evaporated on silicon wafer, maintained at 90° C., 40 hr
[10] = thermally evaporated on silicon wafer, maintained at 90° C., 50 hr
[11] = thermally evaporated on silicon wafer, maintained at 90° C., 60 hr

CCCCCCCCCCCCCCCCCCCCCCCCCCCCCCCCCCCCCCCCCCCCCCCCCC [C50, pentacontane]
C.A. Benzyl Chloride [1, 3]: Fully wetted | C.A. Clorobenzene [1, 3]: Fully wetted | C.A. Cyclohexane [1, 3]: Fully wetted | C.A. Ethylene Glycol [1, 3]: 100 | C.A. Glycerol [1, 3]: 111 | C.A. Water [1, 3]: 151 | C.A. hexadecane [1, 3]: Fully wetted

FC(F)(F)C(F)(F)C(F)(F)C(F)(F)C(F)(F)C(F)(F)C(F)(F)C(F)(F)C(F)(F)C(F)(F)C(F)(F)C(F)(F)C(F)(F)C(F)(F)C(F)(F)C(F)(F)C(F)(F)C(F)(F)C(F)(F)C(F)(F)C(F)(F)C(F)(F)C(F)(F)C(F)(F)F [C24, perfluorotetracosane]
P. aeruginosa biofilm formation on coated substrate (P. aeruginosa biofilm): substantially prevented the biofilm formation | Roughness (RMS) [2]: 0.12 μm | surface roughness (R.M.S.) ([2]; thermally-evaporated fluorinated wax, at 90° C. after a 60 hour time period): 0.9 μm | surface roughness (R.M.S.), initial ([2]; thermally-evaporated fluorinated wax, before maintaining at 90° C.): 0.7 μm | RMS roughness growth ([2]; 20 hours at 70° C.): about 0.06 μm | RMS roughness growth ([2]; 20 hours at 80° C.): about 0.08 μm | RMS roughness growth ([2]; maintained at 90° C.): about 0.4 μm | B. cereus biofilm formation on coated substrate (B. cereus 407 biofilms): could not adhere successfully to form confluent biofilms | C.A. Ethylene Glycol [1, 4]: 100 | C.A. Glycerol [1, 4]: 140 | C.A. Water [1, 4]: 141 | C.A. Ethylene Glycol 18 hr [1, 5]: 167 | C.A. Glycerol 18 hr [1, 5]: 163 | C.A. Hexadecane 18 hr [1, 5]: 122 | C.A. Water 18 hr [1, 5]: 160 | C.A. Ethylene Glycol 20 hr [1, 6]: 159 | C.A. Glycerol 20 hr [1, 6]: 164 | C.A. Hexadecane 20 hr [1, 6]: 115 | C.A. Water 20 hr [1, 6]: 165 | C.A. Ethylene Glycol 22 hr [1, 7]: 155 | C.A. Glycerol 22 hr [1, 7]: 165 | C.A. Hexadecane 22 hr [1, 7]: 118 | C.A. Water 22 hr [1, 7]: 161 | C.A. Ethylene Glycol 30 hr [1, 8]: 160 | C.A. Glycerol 30 hr [1, 8]: 167 | C.A. Hexadecane 30 hr [1, 8]: 119 | C.A. Water 30 hr [1, 8]: 168 | C.A. Ethylene Glycol 40 hr [1, 9]: 156 | C.A. Glycerol 40 hr [1, 9]: 167 | C.A. Hexadecane 40 hr [1, 9]: 124 | C.A. Water 40 hr [1, 9]: 168 | C.A. Ethylene Glycol 50 hr [1, 10]: 161 | C.A. Glycerol 50 hr [1, 10]: 163 | C.A. Hexadecane 50 hr [1, 10]: 123 | C.A. Water 50 hr [1, 10]: 163 | C.A. Ethylene Glycol 60 hr [1, 11]: 166 | C.A. Glycerol 60 hr [1, 11]: 166 | C.A. Hexadecane 60 hr [1, 11]: 117 | C.A. Water 60 hr [1, 11]: 167 | time-dependent contact angle of water, glycerol, ethylene glycol and hexadecane ([1]; thermally evaporated on silicon wafer, room temperature, two-week period): slight variation of the measured contact angles | contact angle of olive oil drop ([1]; thermally-evaporated on silicon substrate, FIG. 3A insert): high contact angle | C.A. Benzyl Chloride [1, 3]: 139 | C.A. Clorobenzene [1, 3]: 138 | C.A. Cyclohexane [1, 3]: 112 | C.A. Ethylene Glycol [1, 3]: 171 | C.A. Glycerol [1, 3]: 172 | C.A. Water [1, 3]: 172 | C.A. hexadecane [1, 3]: 112

CCCCCCCCCCCCCCCCCCCCCCCCCCCCCCCCCCCC [C36, hexatriacontane]
Roughness (RMS) [2]: 0.07-0.1 μm | B. cereus biofilm formation on coated substrate (B. cereus 407 biofilms): Less significant inhibition of biofilm formation | C.A. Ethylene Glycol [1, 4]: 58 | C.A. Glycerol [1, 4]: 64 | C.A. Water [1, 4]: 75 | contact angle of a water drop ([1]; thermally-evaporated on gold surface, maintained at room temperature for a week): 165 ° | C.A. Benzyl Chloride [1, 3]: Fully wetted | C.A. Clorobenzene [1, 3]: Fully wetted | C.A. Cyclohexane [1, 3]: Fully wetted | C.A. Ethylene Glycol [1, 3]: 121 | C.A. Glycerol [1, 3]: 133 | C.A. Water [1, 3]: 171 | C.A. hexadecane [1, 3]: Fully wetted

FC(F)(F)C(F)(F)C(F)(F)C(F)(F)C(F)(F)C(F)(F)C(F)(F)C(F)(F)C(F)(F)C(F)(F)C(F)(F)C(F)(F)C(F)(F)C(F)(F)C(F)(F)C(F)(F)C(F)(F)C(F)(F)C(F)(F)C(F)(F)F [C20, perfluoroeicosane, reference compound]
C.A. Benzyl Chloride [1, 3]: Fully wetted | C.A. Clorobenzene [1, 3]: Fully wetted | C.A. Cyclohexane [1, 3]: Fully wetted | C.A. Ethylene Glycol [1, 3]: 122 | C.A. Glycerol [1, 3]: 120 | C.A. Water [1, 3]: 128 | C.A. hexadecane [1, 3]: Fully wetted

FC(F)(F)C(F)(F)C(F)(F)C(F)(F)C(F)(F)C(F)(F)C(F)(F)C(F)(F)C(F)(F)C(F)(F)C(F)(F)C(F)(F)C(F)(F)C(F)(F)C(F)(F)F [C15, perfluoropentadecane]
Roughness (RMS) [2]: 0.12 μm | C.A. Ethylene Glycol [1, 4]: 59 | C.A. Glycerol [1, 4]: 110 | C.A. Water [1, 4]: 114

CCCCCCCCCCCCCCCCCCCCCCCCCCCCCCCCCCCCCCCCCCCC [C44, tetratetracontane]
P. aeruginosa biofilm formation on coated substrate (P. aeruginosa biofilm): substantially prevented the biofilm formation | B. cereus biofilm formation on coated substrate (B. cereus 407 biofilms): could not adhere successfully to form confluent biofilms | C.A. Ethylene Glycol [1, 4]: 60 | C.A. Glycerol [1, 4]: 96 | C.A. Water [1, 4]: 96 | C.A. Benzyl Chloride [1, 3]: Fully wetted | C.A. Clorobenzene [1, 3]: Fully wetted | C.A. Cyclohexane [1, 3]: Fully wetted | C.A. Ethylene Glycol [1, 3]: 103 | C.A. Glycerol [1, 3]: 130 | C.A. Water [1, 3]: 161 | C.A. hexadecane [1, 3]: Fully wetted

CCCCCCCCCCCCCCCCCCCCCCCCCCCCCCCCCCCCCCCC [C40, tetracontane]
Roughness (RMS) [2]: 0.06-0.09 μm | B. cereus biofilm formation on coated substrate (B. cereus 407 biofilms): could not adhere successfully to form confluent biofilms | C.A. Ethylene Glycol [1, 4]: 62 | C.A. Glycerol [1, 4]: 69 | C.A. Water [1, 4]: 85 | C.A. Benzyl Chloride [1, 3]: Fully wetted | C.A. Clorobenzene [1, 3]: Fully wetted | C.A. Cyclohexane [1, 3]: Fully wetted | C.A. Ethylene Glycol [1, 3]: 112 | C.A. Glycerol [1, 3]: 144 | C.A. Water [1, 3]: 167 | C.A. hexadecane [1, 3]: Fully wetted
